Reference: ChEMBL document CHEMBL3272271, “Folate antagonists. 13. 2,4-Diamino-6-](alpha,alpha,alpha-trifluoro-m-tolyl)thio]quinazoline and related 2,4-diamino-6-[(phenyl- and naphthyl)thio]quinazolines, a unique class of antimetabolites with extraordinary antimalarial and antibacterial effects” (J Med Chem, 1978)
Converted amounts (≈) assume the structure as drawn. The source made the active and inactive calls. The rule behind the calls is not given here.

Key:
Plasmodium gallinaceum [1] = test: Antimalarial activity against trophozoite-induced Plasmodium gallinaceum infected in white leghorn chicken assessed as disease cure from parasite infection at 320 mg/kg, sc administered 72 hrs after infection; assay type: functional, organism-based; parameters: dose 320 mg/kg
Plasmodium gallinaceum [2] = test: Antimalarial activity against trophozoite-induced Plasmodium gallinaceum infected in white leghorn chicken assessed as disease cure from parasite infection at 160 mg/kg, sc administered 72 hrs after infection; assay type: functional, organism-based; parameters: dose 160 mg/kg
Plasmodium gallinaceum [3] = test: Antimalarial activity against trophozoite-induced Plasmodium gallinaceum infected in white leghorn chicken assessed as disease cure from parasite infection at 80 mg/kg, sc administered 72 hrs after infection; assay type: functional, organism-based; parameters: dose 80 mg/kg
Plasmodium gallinaceum [4] = test: Antimalarial activity against trophozoite-induced Plasmodium gallinaceum infected in white leghorn chicken assessed as disease cure from parasite infection at 40 mg/kg, sc administered 72 hrs after infection; assay type: functional, organism-based; parameters: dose 40 mg/kg
Plasmodium gallinaceum [5] = test: Antimalarial activity against sporozoite-induced Plasmodium gallinaceum infected in white leghorn chicken assessed as disease cure from parasite infection at 480 mg/kg, sc administered 72 hrs after infection; assay type: functional, organism-based; parameters: dose 480 mg/kg
Plasmodium gallinaceum [6] = test: Antimalarial activity against sporozoite-induced Plasmodium gallinaceum infected in white leghorn chicken assessed as disease cure from parasite infection at 240 mg/kg, sc administered 72 hrs after infection; assay type: functional, organism-based; parameters: dose 240 mg/kg
Plasmodium gallinaceum [7] = test: Antimalarial activity against sporozoite-induced Plasmodium gallinaceum infected in white leghorn chicken assessed as disease cure from parasite infection at 120 mg/kg, sc administered 72 hrs after infection; assay type: functional, organism-based; parameters: dose 120 mg/kg
Plasmodium gallinaceum [8] = test: Antimalarial activity against sporozoite-induced Plasmodium gallinaceum infected in white leghorn chicken assessed as disease cure from parasite infection at 60 mg/kg, sc administered 72 hrs after infection; assay type: functional, organism-based; parameters: dose 60 mg/kg
Plasmodium gallinaceum [9] = test: Antimalarial activity against sporozoite-induced Plasmodium gallinaceum infected in white leghorn chicken assessed as disease cure from parasite infection at 30 mg/kg, sc administered 72 hrs after infection; assay type: functional, organism-based; parameters: dose 30 mg/kg
Plasmodium gallinaceum [10] = test: Antimalarial activity against sporozoite-induced Plasmodium gallinaceum infected in white leghorn chicken assessed as disease cure from parasite infection at 15 mg/kg, sc administered 72 hrs after infection; assay type: functional, organism-based; parameters: dose 15 mg/kg
Plasmodium gallinaceum [11] = test: Antimalarial activity against sporozoite-induced Plasmodium gallinaceum infected in white leghorn chicken assessed as disease cure from parasite infection at 7.5 mg/kg, sc administered 72 hrs after infection; assay type: functional, organism-based; parameters: dose 7.5 mg/kg
Plasmodium berghei [12] = test: Antimalarial activity against Plasmodium berghei infected in mouse assessed as disease cure from parasite infection at 640 mg/kg, sc administered 72 hrs after infection; assay type: functional, organism-based; parameters: dose 640 mg/kg
Plasmodium berghei [13] = test: Antimalarial activity against Plasmodium berghei infected in mouse assessed as disease cure from parasite infection at 320 mg/kg, sc administered 72 hrs after infection; assay type: functional, organism-based; parameters: dose 320 mg/kg
Plasmodium berghei [14] = test: Antimalarial activity against Plasmodium berghei infected in mouse assessed as disease cure from parasite infection at 160 mg/kg, sc administered 72 hrs after infection; assay type: functional, organism-based; parameters: dose 160 mg/kg
Plasmodium gallinaceum [15] = test: Antimalarial activity against trophozoite-induced Plasmodium gallinaceum infected in white leghorn chicken assessed as disease cure from parasite infection at 20 mg/kg, sc administered 72 hrs after infection; assay type: functional, organism-based; parameters: dose 20 mg/kg
Plasmodium gallinaceum [16] = test: Antimalarial activity against trophozoite-induced Plasmodium gallinaceum infected in white leghorn chicken assessed as disease cure from parasite infection at 10 mg/kg, sc administered 72 hrs after infection; assay type: functional, organism-based; parameters: dose 10 mg/kg
Plasmodium falciparum [17] = test: Antimalarial activity against chloroquine-susceptible, pyrimethamine-resistant Plasmodium falciparum Malayan Camp infected in Aotus trivirgatus owl monkey model assessed as cure from parasite infection at >2.5 mg/kg, po qd for 7 days relative to control; assay type: functional
Plasmodium falciparum [18] = test: Antimalarial activity against pyrimethamine-sensitive Plasmodium falciparum Vietnam Oak Knoll infected in Aotus trivirgatus owl monkey model assessed as cure from parasite infection at 0.098 to 1.56 mg/kg, po qd for 7 days relative to control; assay type: functional; details: dose mg/kg 0.098-1.56
Plasmodium falciparum [19] = test: Antimalarial activity against pyrimethamine-sensitive Plasmodium falciparum Vietnam Oak Knoll infected in Aotus trivirgatus owl monkey model assessed as cure from parasite infection at 0.6 mg/kg, po qd for 7 days relative to control; assay type: functional
Enterococcus faecalis = test: Antibacterial activity against Streptococcus faecalis MGH-2 by gradient plate test; assay type: functional
Staphylococcus aureus [20] = test: Antibacterial activity against Staphylococcus aureus UC-96 by gradient plate test; assay type: functional
Staphylococcus aureus [21] = test: Antibacterial activity against drug-resistant Staphylococcus aureus S18713 by gradient plate test; assay type: functional
Pseudomonas aeruginosa = test: Antibacterial activity against Pseudomonas aeruginosa 28 by gradient plate test; assay type: functional
Escherichia coli = test: Antibacterial activity against Escherichia coli Vogel by gradient plate test; assay type: functional
Shigella sonnei = test: Antibacterial activity against Shigella sonnei C-10 by gradient plate test; assay type: functional
Plasmodium berghei [22] = test: Antimalarial activity against Plasmodium berghei infected in mouse assessed as increase in mean survival days of host at 10 mg/kg, sc administered 72 hrs after infection relative to control; assay type: functional; details: route subcutaneous
Plasmodium berghei [23] = test: Antimalarial activity against chloroquine-resistant Plasmodium berghei assessed as drug resistance; assay type: functional, organism-based
Plasmodium berghei [24] = test: Antimalarial activity against cycloguanil-resistant Plasmodium berghei assessed as drug resistance; assay type: functional, organism-based
Plasmodium falciparum [25] = test: Antimalarial activity against chloroquine-susceptible, pyrimethamine-resistant Plasmodium falciparum Malayan Camp infected in Aotus trivirgatus owl monkey model assessed as cure from parasite infection at 0.39 to 5 mg/kg, po qd for 7 days relative to control; assay type: functional; details: dose mg/kg 0.39-5
Plasmodium berghei [26] = test: Antimalarial activity against Plasmodium berghei infected in mouse assessed as increase in mean survival days of host at 5 mg/kg, sc administered 72 hrs after infection relative to control; assay type: functional; details: route subcutaneous
Plasmodium berghei [27] = test: Antimalarial activity against Plasmodium berghei infected in mouse assessed as increase in mean survival days of host at 2.5 mg/kg, sc administered 72 hrs after infection relative to control; assay type: functional; details: route subcutaneous
Plasmodium berghei [28] = test: Antimalarial activity against Plasmodium berghei infected in mouse assessed as increase in mean survival days of host at 1.25 mg/kg, sc administered 72 hrs after infection relative to control; assay type: functional; details: route subcutaneous
Plasmodium berghei [29] = test: Antimalarial activity against Plasmodium berghei infected in mouse assessed as disease cure from parasite infection at 80 mg/kg, sc administered 72 hrs after infection; assay type: functional, organism-based; parameters: dose 80 mg/kg
Plasmodium berghei [30] = test: Antimalarial activity against Plasmodium berghei infected in mouse assessed as disease cure from parasite infection at 40 mg/kg, sc administered 72 hrs after infection; assay type: functional, organism-based; parameters: dose 40 mg/kg
Plasmodium berghei [31] = test: Antimalarial activity against Plasmodium berghei infected in mouse assessed as disease cure from parasite infection at 20 mg/kg, sc administered 72 hrs after infection; assay type: functional, organism-based; parameters: dose 20 mg/kg
Plasmodium gallinaceum [32] = test: Antimalarial activity against trophozoite-induced Plasmodium gallinaceum infected in white leghorn chicken assessed as increase in mean survival days of host at 5 mg/kg, sc administered 72 hrs after infection relative to control; assay type: functional; details: route subcutaneous
Plasmodium gallinaceum [33] = test: Antimalarial activity against trophozoite-induced Plasmodium gallinaceum infected in white leghorn chicken assessed as increase in mean survival days of host at 2.5 mg/kg, sc administered 72 hrs after infection relative to control; assay type: functional; details: route subcutaneous
Plasmodium gallinaceum [34] = test: Antimalarial activity against trophozoite-induced Plasmodium gallinaceum infected in white leghorn chicken assessed as increase in mean survival days of host at 1.25 mg/kg, sc administered 72 hrs after infection relative to control; assay type: functional; details: route subcutaneous
Plasmodium gallinaceum [35] = test: Antimalarial activity against trophozoite-induced Plasmodium gallinaceum infected in white leghorn chicken assessed as increase in mean survival days of host at 0.63 mg/kg, sc administered 72 hrs after infection relative to control; assay type: functional; details: route subcutaneous

With Nc1nc(N)c2cc(NCc3ccc(Cl)c(Cl)c3)ccc2n1 the Activity (Plasmodium gallinaceum [1]) was “Active”, the Activity (Plasmodium gallinaceum [2]) was “Active” and the Activity (Plasmodium gallinaceum [3]) was “Active”. The Activity (Plasmodium gallinaceum [4]) was “Active”, the Activity (Plasmodium gallinaceum [5]) was “Active” and the Activity (Plasmodium gallinaceum [6]) was “Active”. The Activity (Plasmodium gallinaceum [7]) was “Active”, the Activity (Plasmodium gallinaceum [8]) was “Active” and the Activity (Plasmodium gallinaceum [9]) was “Active”. The Activity (Plasmodium gallinaceum [10]) was “Active”, the Activity (Plasmodium gallinaceum [11]) was “Active” and the Activity (Plasmodium berghei [12]) was “Active”. For the same compound, the Activity (Plasmodium berghei [13]) was “Active” and the Activity (Plasmodium berghei [14]) was “Active”.

In the case of CN(C)c1ccc(Sc2ccc3nc(N)nc(N)c3c2)cc1, the Activity (Plasmodium gallinaceum [15]) is reported as “Active”, the Activity (Plasmodium gallinaceum [16]) is reported as “Active” and the Activity (Plasmodium falciparum [17]) is reported as over 50%. For the same compound, the Activity (Plasmodium falciparum [18]) was over 50%, the Activity (Plasmodium falciparum [19]) was over 50% and the MIC (Enterococcus faecalis) was under 0.25 µg/mL. It also gave an MIC (Staphylococcus aureus [20]) of under 0.25 µg/mL, an MIC (Staphylococcus aureus [21]) of under 0.25 µg/mL and an MIC (Pseudomonas aeruginosa) of over 25 µg/mL. For the same compound, the MIC (Escherichia coli) was 1.5 µg/mL (≈ 4.82 µM), the MIC (Shigella sonnei) was 10 µg/mL (≈ 32.1 µM) and the Activity (Plasmodium gallinaceum [5]) was “Active”. For the same compound, the Activity (Plasmodium gallinaceum [6]) was “Active”, the Activity (Plasmodium gallinaceum [7]) was “Active” and the Activity (Plasmodium gallinaceum [8]) was “Active”. The Activity (Plasmodium gallinaceum [9]) was “Active”, the Activity (Plasmodium gallinaceum [10]) was “Active” and the MST (Plasmodium berghei [22]) was 10.3 days. The Activity (Plasmodium berghei [23]) was “inactive”, the Activity (Plasmodium berghei [24]) was “Active” and the Activity (Plasmodium falciparum [25]) was over 50%. For the same compound, the MST (Plasmodium berghei [26]) was 9.7 days, the MST (Plasmodium berghei [27]) was 5.5 days and the MST (Plasmodium berghei [28]) was 2.5 days. For the same compound, the Activity (Plasmodium berghei [12]) was “Active”, the Activity (Plasmodium berghei [13]) was “Active” and the Activity (Plasmodium berghei [14]) was “Active”. The Activity (Plasmodium berghei [29]) was “Active”, the Activity (Plasmodium berghei [30]) was “Active” and the Activity (Plasmodium berghei [31]) was “Active”. For the same compound, the MST (Plasmodium gallinaceum [32]) was 19.8 days, the MST (Plasmodium gallinaceum [33]) was 12.6 days and the MST (Plasmodium gallinaceum [34]) was 10.4 days. For the same compound, the MST (Plasmodium gallinaceum [35]) was 6.6 days.
